Test system: Caco-2 cells
Assay: Cytotoxicity of aspalathin on Caco-2 cells (Vialight plus kit)
Type: cell-based, human
Conditions: HBSS buffer pH 6.0, apical side; 2 h exposure
Excerpt: Supplementary material for:
Intestinal Transport Characteristics and Metabolism of C-Glucosyl Dihydrochalcone, Aspalathin
Sandra Bowles 1,*, Elizabeth Joubert 2,3, Dalene de Beer 2,3, Johan Louw 1,4, Christel Brunschwig 5,6,7, Mathew Njoroge 5,6,7, Nina Lawrence 6, Lubbe Wiesner 7, Kelly Chibale 5,6,8,9, and Christo […]
1 Biomedical Research and Innovation Platform, South African Medical Research Council, Tygerberg, Cape Town, 7130, South Africa; johan.louw@mrc.ac.za (J.L.); christo.muller@mrc.ac.za (C.M.) 2 Plant Bioactives Group, Post-Harvest and Wine Technology Division, Agricultural Research Council, Infruitec-Nietvoorbij, Stellenbosch 7600, South Africa; JoubertL@arc.agric.za (E.J.); DBeerD@arc.agric.za […]
3 Department of Food Science, Stellenbosch University, Stellenbosch 7600, South Africa 4 Department of Biochemistry and Microbiology, University of Zululand, Kwa-Dlangezwa 3886, South […]
Caco-2 cells was assessed by the VialightTM plus kit. Caco-2 cells were seeded at a density of 4 x 10^4 cells/cm2 into white clear bottomed 96-well plates and cytotoxicity was assessed according to the manufacturer’s recommendation after 12–13 days. […]

## O=C(CCc1ccc(O)c(O)c1)c1c(O)cc(O)c([C@@H]2O[C@H](CO)[C@@H](O)[C@H](O)[C@H]2O)c1O [Aspalathin]
  maximum concentration not cytotoxic to Caco-2 cells (>80% viability): 150 µM

Source: paper PMC6154319, “Intestinal Transport Characteristics and Metabolism of C-Glucosyl Dihydrochalcone, Aspalathin” (Molecules : A Journal of Synthetic Chemistry and Natural …, 2017)
